The term pKi denotes the negative decadic logarithm of the Ki, by convention in mol/L. The term pEC50 denotes the negative decadic logarithm of the EC50, by convention in mol/L. Higher therefore signals a small EC50.

The values that follow come from US6936636B2, “5-[phenyl-tetrahydronaphthalene-2-yl dihydronaphthalen-2-yl and heteroaryl-cyclopropyl]-pentadienoic acid derivatives having serum glucose reducing activity” (Allergan, Inc., priority 2003, dated 2005).

Data set [1] has as its target T1, RXRβ (Homo sapiens, UniProt P28702).
T1 construct: expressed in transfected cells
T1 sequence (P28702 1-533): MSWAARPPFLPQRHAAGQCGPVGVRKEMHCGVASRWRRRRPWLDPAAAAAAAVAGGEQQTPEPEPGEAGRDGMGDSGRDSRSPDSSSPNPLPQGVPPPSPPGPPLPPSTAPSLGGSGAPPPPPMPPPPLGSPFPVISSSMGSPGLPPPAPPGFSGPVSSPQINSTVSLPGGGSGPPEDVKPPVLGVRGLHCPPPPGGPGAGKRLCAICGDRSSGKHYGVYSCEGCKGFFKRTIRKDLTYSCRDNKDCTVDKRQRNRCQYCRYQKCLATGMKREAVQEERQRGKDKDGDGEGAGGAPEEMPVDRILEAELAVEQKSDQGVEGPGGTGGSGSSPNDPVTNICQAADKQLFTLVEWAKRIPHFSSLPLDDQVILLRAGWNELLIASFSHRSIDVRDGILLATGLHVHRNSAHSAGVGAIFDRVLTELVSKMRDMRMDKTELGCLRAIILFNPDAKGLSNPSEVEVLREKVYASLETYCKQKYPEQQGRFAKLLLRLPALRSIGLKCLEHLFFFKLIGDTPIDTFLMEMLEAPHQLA
In words: RXR ligand binding assay. An excerpt:
(§1) A holoreceptor transactivation assay and a ligand binding assay which measure the antagonist/agonist like activity of the compounds of the invention, or their ability to bind to the several retinoid receptor subtypes, respectively, are described in published PCT Application No. WO WO93/11755 (particularly on pages 30-33 and 37-41) published on Jun. 24, 1993, the specification of which is also incorporated herein by reference. A detailed experimental procedure for holoreceptor transactivations has been described by Heyman et al. Cell 68, 397-406, (1992); Allegretto et al. J. Biol. Chem. 268, 26625-26633, and Mangelsdorf et al. The Retinoids: Biology, Chemistry and Medicine, pp 319-349, Raven Press Ltd., New York, which are expressly incorporated herein by reference. The results obtained in this assay are expressed in EC50 numbers, as they are also in the, chimeric receptor transactivation assay. The results of the ligand binding assay are expressed in Ki numbers. (See Cheng et al. Biochemical Pharmacology Vol. 22 pp 3099-3108, expressly incorporated herein by reference.)
(§2) In Tables 1 and 2 the binding Ki numbers are indicated in the first 3 columns. In the second set of three columns the numbers in parentheses indicate efficacy as a percentage compared to the standard compound, (2E, 4E, 1′S, 2′S)-3-methyl-5-[2′-methyl-2′-(5,5,8,8-tetramethyl-5,6,7,8-tetrahydro-naphthalen-2-yl)-cyclopropyl]-penta-2,4-dienoic acid and the other numbers indicate the measured EC50 in nanomolar concentration.

Data set [2] addresses T2, RXRα (Homo sapiens, UniProt P19793).
T2 construct: expressed in transfected cells
T2 sequence (P19793 1-462): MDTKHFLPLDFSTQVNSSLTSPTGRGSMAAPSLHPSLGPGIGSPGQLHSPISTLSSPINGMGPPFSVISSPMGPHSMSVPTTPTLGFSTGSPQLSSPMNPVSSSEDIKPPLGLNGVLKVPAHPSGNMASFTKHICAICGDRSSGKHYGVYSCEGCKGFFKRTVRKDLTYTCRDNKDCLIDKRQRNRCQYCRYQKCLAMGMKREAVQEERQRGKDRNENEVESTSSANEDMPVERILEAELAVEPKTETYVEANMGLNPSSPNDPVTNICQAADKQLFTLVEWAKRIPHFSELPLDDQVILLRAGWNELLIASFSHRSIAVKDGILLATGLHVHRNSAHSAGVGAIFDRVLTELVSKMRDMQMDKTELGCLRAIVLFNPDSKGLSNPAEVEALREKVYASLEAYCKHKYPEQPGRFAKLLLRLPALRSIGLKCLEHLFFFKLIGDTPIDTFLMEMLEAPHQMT
Put plainly: RXR ligand binding assay.
Source text: as §1, §2

Data set [3] relates to female diabetic db/db mice. In words: serum glucose, triglyceride and thyroxine levels in diabetic db/db mice. In kind it is in vivo. The note with it: for Glucose / Triglycerides / T4: db/db mice; for T4: Day 7. From the text: An assay described below tests the effect of compounds of the invention on serum glucose, tryglyceride and thyroxine levels in female 9-10 weeks old db/db mice.
Female diabetic db/db (9-10 weeks old) mice were maintained on standard laboratory food and treated by oral gavage with vehicle (corn oil), standard compound (2E, 4E, 1′S, 2S)-3-methyl-5-[2′-methyl-2′-(5,5,8,8-tetramethyl-5,6,7,8-tetrahydro-naphthalen-2-yl)-cyclopropyl]-penta-2,4-dienoic acid ([…]) daily for seven days at 8:00 AM. Blood samples (70 μl) were taken by orbital bleeding at 11:00 AM on day 0 (pre-treatment), day 3, and day 6. On day 7, a blood sample (700 μl) was taken at 11:00 AM and the animals were sacrificed. Glucose, triglyceride and thyroxine (T4) levels were determined on a Boehringer Manheim Hatachi Clinical Chemistry Analyzer using standard protocols provided by the manufacturer and reagents that were supplied in commercially available kits (glucose and T4: Boehringer Manheim; triglycerides: Roche Diagnostics). Seven animals were treated in each group.

Data set [4] addresses T1, RXRβ. Put plainly: holoreceptor transactivation assay. In kind it is cell-based. The note with it: for Transactivation % Efficiency RXRβ: efficacy as percentage compared to the standard compound; for pEC50: holoreceptor assay.
Source text: as §1
(§3) Efficacy in a transactivation assay is expressed as a percentage of the maximum potency attained by the compound compared to a standard which, in this, case, is the compound named (2E, 4E, 1′S, 2′S)-3-methyl-5-[2′-methyl-2′-(5,5,8,8-tetramethyl-5,6,7,8-tetrahydro-naphthalen-2-yl)-cyclopropyl]-penta-2,4-dienoic acid. This standard compound is described in U.S. Pat. No. 6,114,533.
(§4) Table 1 discloses the activity of certain exemplary tetrahydronaphthale compounds of the invention in the above-described RXR receptor transactivation and binding assays. […] The transactivation data pertaining to the activation of RXR receptors were obtained in the holoreceptor assay.
as §2

Data set [5] deals with T2, RXRα. Put plainly: holoreceptor transactivation assay. It is filed as cell-based. As to conditions: for Transactivation % Efficiency RXRα: efficacy as percentage compared to the standard compound; for pEC50: holoreceptor assay.
Source text: as §1, §3, §4, §2

Another data set addresses T3, RXRγ (Homo sapiens, UniProt P48443).
T3 construct: expressed in transfected cells
T3 sequence (P48443 1-463): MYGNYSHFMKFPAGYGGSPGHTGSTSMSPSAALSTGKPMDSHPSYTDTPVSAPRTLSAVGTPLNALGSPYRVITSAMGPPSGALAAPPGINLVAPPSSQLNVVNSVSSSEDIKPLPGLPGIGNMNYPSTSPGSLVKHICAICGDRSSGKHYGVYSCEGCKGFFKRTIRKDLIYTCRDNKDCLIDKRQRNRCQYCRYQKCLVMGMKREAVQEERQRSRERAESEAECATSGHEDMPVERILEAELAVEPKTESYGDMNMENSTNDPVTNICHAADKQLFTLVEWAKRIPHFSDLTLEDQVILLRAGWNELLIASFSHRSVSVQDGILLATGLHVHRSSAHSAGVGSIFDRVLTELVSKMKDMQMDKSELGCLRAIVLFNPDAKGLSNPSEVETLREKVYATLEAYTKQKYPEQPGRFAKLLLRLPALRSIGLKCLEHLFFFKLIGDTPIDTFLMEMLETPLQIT
Put plainly: holoreceptor transactivation assay. It is filed as cell-based. The note with it: for Transactivation % Efficiency RXRγ: efficacy as percentage compared to the standard compound; for pEC50: holoreceptor assay.
Source text: as §1, §3, §4, §2

The mark [6] stands for this setting: Day 0 (pre-treatment), 50 mg/kg oral gavage daily.
The mark [7] stands for this setting: Day 3, 3 h, 50 mg/kg oral gavage daily.
The mark [8] stands for this setting: Day 6, 3 h, 50 mg/kg oral gavage daily.
Setting [9] is: Day 0 (pre-treatment), 4 mg/kg oral gavage daily.
The mark [10] stands for this setting: Day 3, 3 h, 4 mg/kg oral gavage daily.
The mark [11] stands for this setting: Day 6, 3 h, 4 mg/kg oral gavage daily.

pEC50, pKi: −log10 of the molar value. Bounds are passed on as bounds.

Take `COC[C@H]1[C@@H](/C=C/C(C)=C/C(=O)O)[C@@]1(C)c1ccc2c(c1)C(C)(C)CCC2(C)C` (stereo in doubt) [Compound 21a, (−)-(1R, 2S, 3 S)-5-[3-Methoxymethyl-2-methyl-2-(5,5,8,8-tetramethyl-5,6,7,8-tetrahydro-naphthalen-2-yl)-cyclopropyl]-3-methyl-penta-2E,4E-dienoic acid]: the pKi on RXRβ [1] was 7.32; at RXRα [2], 8.30. For the same molecule, the Glucose in data set [3] (setting [6]) came to 445 ± 66 mg/dL; in data set [3] (setting [7]), 339 ± 194 mg/dL; in data set [3] (setting [8]), 314 ± 196 mg/dL. Further, the Triglycerides was 271 ± 80 mg/dL in data set [3] (setting [6]), 130 ± 71 mg/dL in data set [3] (setting [7]) and 180 ± 63 mg/dL in data set [3] (setting [8]). This molecule also displayed a T4 in data set [3] (50 mg/kg oral gavage daily) of 4.2 ± 0.3 µg/dL. For the same molecule, the “Transactivation % Efficiency RXRβ” value on RXRβ [4] is 38%. The values for the negative-log EC50 (pEC50) at RXRβ [4], at RXRα [5] and at RXRγ were 7.44, 8.40 and 8.22, respectively. Further, the “Transactivation % Efficiency RXRα” value on RXRα [5] worked out at 39%. For the same molecule, the “Transactivation % Efficiency RXRγ” value at RXRγ is given as 41%.
As to `CCOC[C@H]1[C@@H](/C=C/C(C)=C/C(=O)O)C1(C)c1ccc2c(c1)C(C)(C)CCC2(C)C` (stereo in doubt) [Compound 21b, (−)-(1R, 2S, 3S)-5-[3-Ethoxymethyl-2-methyl-2-(5,5,8,8-tetramethyl-5,6,7,8-tetrahydro-naphthalen-2-yl)-cyclopropyl]-3-methyl-penta-2E,4E-dienoic acid], the pKi was 6.64 on RXRβ [1] and 7.77 on RXRα [2]. Moreover, the pEC50 was < 6.00 at RXRβ [4], 7.55 on RXRα [5] and 7.36 at RXRγ. For the same molecule, at RXRα [5], the “Transactivation % Efficiency RXRα” value is 41%. At RXRγ, the “Transactivation % Efficiency RXRγ” value came out at 34%.
In the case of `COC[C@@H]1[C@@H](/C=C/C(C)=C/C(=O)O)C1(C)c1ccc2c(c1)C(C)(C)CCC2(C)C` (stereo in doubt) [Compound 23a, (−)-(1R, 2S, 3R)-5-[3-Methoxymethyl-2-methyl-2-(5,5,8,8-tetramethyl-5,6,7,8-tetrahydro-naphthalen-2-yl)-cyclopropyl]-3-methyl-penta-2E,4E-dienoic acid], the pKi is 6.73 at RXRβ [1] and 7.74 on RXRα [2]. The “Transactivation % Efficiency RXRβ” value on RXRβ [4] was 9%. The values for the negative logarithm of the EC50 (pEC50) on RXRβ [4], on RXRα [5] and at RXRγ were 6.26, 7.57 and 7.22, respectively. Moreover, at RXRα [5], the “Transactivation % Efficiency RXRα” value is 9%. For the same molecule, the “Transactivation % Efficiency RXRγ” value at RXRγ was determined as 9%.
As to `CCOC[C@@H]1[C@@H](/C=C/C(C)=C/C(=O)O)C1(C)c1ccc2c(c1)C(C)(C)CCC2(C)C` (stereo in doubt) [Compound 23b, (−)-(1R, 2S, 3R)-5-[3-Ethoxymethyl-2-methyl-2-(5,5,8,8-tetramethyl-5,6,7,8-tetrahydro-naphthalen-2-yl)-cyclopropyl]-3-methyl-penta-2E,4E-dienoic acid], the negative-log Ki (pKi) at RXRβ [1] was 6.92; on RXRα [2], 7.57.
Regarding `COCC1[C@@H](/C=C/C(C)=C/C(=O)O)C1(C)c1cc(C(C)C)cc(C(C)C)c1` (stereo in doubt) [Compound 29, (−)-(1R, 2S, 3S)-5-[3-Methoxymethyl-2-methyl-2-(3,5-diisopropyl-phenyl)-cyclopropyl]-3-methyl-penta-2E,4E-dienoic acid], the pKi on RXRβ [1] was 7.31; on RXRα [2] it was 7.96. Besides, the “Transactivation % Efficiency RXRβ” value at RXRβ [4] amounted to 34%. Also, the negative-log EC50 (pEC50) is 7.33 at RXRβ [4], 8.30 on RXRα [5] and 7.80 on RXRγ. On RXRα [5], the “Transactivation % Efficiency RXRα” value was determined as 24%. For the same molecule, the “Transactivation % Efficiency RXRγ” value at RXRγ is given as 35%.
On RXRβ [1], `COCC1[C@@H](/C=C/C(C)=C/C(=O)O)C1(C)c1cc(C(C)C)cc(C(C)C)c1` (stereo in doubt) [Compound 31a, (−)-(1R, 2S, 3R)-5-[3-Methoxymethyl-2-methyl-2-(3,5-diisopropyl-phenyl)-cyclopropyl]-3-methyl-penta-2E,4E-dienoic acid] showed a pKi of 7.60. In addition, the negative logarithm of the Ki (pKi) at RXRα [2] is 8.12. Moreover, at RXRβ [4], the “Transactivation % Efficiency RXRβ” value came out at 90% and the negative-log EC50 (pEC50) was 7.77. On RXRα [5], the “Transactivation % Efficiency RXRα” value was 104% and the pEC50 was 8.57. For the same molecule, on RXRγ, the “Transactivation % Efficiency RXRγ” value is on record as 101% and the negative-log EC50 (pEC50) is 8.44.
Take `CC(/C=C/[C@@H]1C[C@]1(C)c1ccc2c(c1)C(C)(C)CCC2(C)C)=C\C(=O)O` [Standard compound, (2E, 4E, 1′S, 2′S)-3-methyl-5-[2′-methyl-2′-(5,5,8,8-tetramethyl-5,6,7,8-tetrahydro-naphthalen-2-yl)-cyclopropyl]-penta-2,4-dienoic acid]: the Glucose in data set [3] (setting [9]) is 423 ± 57 mg/dL; in data set [3] (setting [10]), 315 ± 105 mg/dL; in data set [3] (setting [11]) it was 268 ± 242 mg/dL. The Triglycerides in data set [3] (setting [9]) came to 300 ± 76 mg/dL; in data set [3] (setting [10]), 219 ± 80 mg/dL; in data set [3] (setting [11]) it was 117 ± 22 mg/dL. This molecule returned a T4 in data set [3] (4 mg/kg oral gavage daily) of 1.1 ± 0.2 µg/dL. In addition, in data set [3] (diabetic mammals), the “effect on serum thyroxine levels (in words)” value is given as “undesirable side effect of reducing serum thyroxine levels”.
